The supplement of paper PMC13380429
± gives the standard deviation of the averaged measurements.

Legend:
Details in all cases: 72 h
U2OS [1] = experiment: cell viability relative to DMSO; higher = less toxic
Caco-2 [2] = experiment: as above
HepG2 [3] = experiment: as above
Calu-3 [4] = experiment: as above
Vero E6 [5] = experiment: as above
U2OS [6] = experiment: drug sensitivity score (DSS) for viability; higher = more toxic; extreme values may be limits of the assay
Caco-2 [7] = experiment: as above
HepG2 [8] = experiment: as above
Calu-3 [9] = experiment: as above
Vero E6 [10] = experiment: as above
U2OS [11] = experiment: relative viability EC50 (midpoint between 100% and the lowest measured viability); higher = less toxic
Caco-2 [12] = experiment: as above
HepG2 [13] = experiment: as above
Calu-3 [14] = experiment: as above
Vero E6 [15] = experiment: as above

Row | Structure (SMILES) | cell viability (U2OS [1]; 1 nM) [%] | cell viability (U2OS [1]; 10 nM) [%] | cell viability (U2OS [1]; 100 nM) [%] | cell viability (U2OS [1]; 1000 nM) [%] | cell viability (U2OS [1]; 10000 nM) [%] | cell viability (Caco-2 [2]; 1 nM) [%] | cell viability (Caco-2 [2]; 10 nM) [%] | cell viability (Caco-2 [2]; 100 nM) [%] | cell viability (Caco-2 [2]; 1000 nM) [%] | cell viability (Caco-2 [2]; 10000 nM) [%] | cell viability (HepG2 [3]; 1 nM) [%] | cell viability (HepG2 [3]; 10 nM) [%] | cell viability (HepG2 [3]; 100 nM) [%] | cell viability (HepG2 [3]; 1000 nM) [%] | cell viability (HepG2 [3]; 10000 nM) [%] | cell viability (Calu-3 [4]; 1 nM) [%] | cell viability (Calu-3 [4]; 10 nM) [%] | cell viability (Calu-3 [4]; 100 nM) [%] | cell viability (Calu-3 [4]; 1000 nM) [%] | cell viability (Calu-3 [4]; 10000 nM) [%] | cell viability (Vero E6 [5]; 1 nM) [%] | cell viability (Vero E6 [5]; 10 nM) [%] | cell viability (Vero E6 [5]; 100 nM) [%] | cell viability (Vero E6 [5]; 1000 nM) [%] | cell viability (Vero E6 [5]; 10000 nM) [%] | drug sensitivity score (U2OS [6]) | drug sensitivity score (Caco-2 [7]) | drug sensitivity score (HepG2 [8]) | drug sensitivity score (Calu-3 [9]) | drug sensitivity score (Vero E6 [10]) | relative viability EC50 (U2OS [11]) [µM] | relative viability EC50 (Caco-2 [12]) [µM] | relative viability EC50 (HepG2 [13]) [µM] | relative viability EC50 (Calu-3 [14]) [µM] | relative viability EC50 (Vero E6 [15]) [µM]
1 | CCCC[C@H]1OC(=O)c2ccccc21 [butylphthalide] | 102 | 98.9 | 102 | 95 | 98.7 | 111 | 95.2 | 102 | 88.9 | 102 | 104 | 107 | 97.2 | 97.8 | 94.9 | 103 | 96.8 | 98.3 | 95.5 | 104 | 103 | 91 | 105 | 106 | 101 | 0 | 0 | 0 | 0 | 0 | > 10 | > 10 | > 10 | > 10 | > 10
2 | C[C@@H](C1=C(CCN(C)C)Cc2ccccc21)c1ccccn1 (racemic) [dimetindene] | 99.5 ± 0.57 | 104 ± 1.8 | 99.3 ± 7.8 | 100 ± 1.4 | 94.8 ± 2.6 | 93.1 ± 6.5 | 98.2 ± 4.7 | 96.3 ± 4.6 | 102 ± 10 | 104.8 ± 0.92 | 104 ± 4.7 | 98 ± 4.8 | 106 ± 5.9 | 89.7 ± 3.2 | 103 ± 2.5 | 98.2 ± 2 | 113 ± 4 | 103.2 ± 0.21 | 105 ± 3.2 | 96 ± 2 | 97.2 ± 8 | 98.2 ± 1.2 | 100.2 ± 0.78 | 100 | 96.5 ± 8 | 0 | 0 | 0 | 0 | 0 | > 10 | > 10 | > 10 | > 10 | > 10
3 | Nc1cccc2c1C(=O)N(C1CCC(=O)NC1=O)C2=O (stereo not given) [pomalidomide] | 99 | 97.3 | 104 | 96.1 | 98.4 | 86 | 85 | 103 | 95 | 98.3 | 104 | 104 | 98.5 | 101 | 111 | 106 | 103 | 103 | 105 | 90.9 | 93.5 | 97.1 | 89.2 | 99.4 | 103 | 0 | 0 | 0 | 0 | 0 | > 10 | > 10 | > 10 | > 10 | > 10
4 | CC#CCOC(=O)c1c(C)nc2sc3c(c2c1N)CCC(O)C3 (stereo not given) | 100 | 94.6 | 103 | 93.8 | 95.9 | 97.3 | 91.4 | 101 | 92.3 | 90.2 | 100 | 94.8 | 89.9 | 106 | 91.4 | 113 | 93.6 | 102 | 101 | 97.4 | 91.6 | 97 | 88.6 | 93.2 | 98.9 | 0 | 0 | 0 | 0 | 0 | > 10 | > 10 | > 10 | > 10 | > 10
5 | CC(C)NCC(O)COc1cccc2[nH]ccc12 (stereo not given) [pindolol] | 103 ± 5 | 101 ± 2.3 | 99.5 ± 3.3 | 102.5 ± 0.35 | 103 ± 0.14 | 117 | 100 | 122 | 101 | 90.9 | 111 ± 10 | 90 ± 12 | 105 ± 0.14 | 85.5 ± 29 | 103 ± 8.6 | 98.8 ± 1.1 | 97 ± 6.8 | 100.4 ± 0.28 | 103.8 ± 0.92 | 102 ± 15 | 99.2 ± 1.3 | 95.8 ± 1.4 | 96.1 ± 9.6 | 98.8 ± 2.1 | 95 ± 11 | 0 | 0 | 0 | 0 | 0 | > 10 | > 10 | > 10 | > 10 | > 10
6 | CO[C@@]1(NC(=O)CSC[C@@H](N)C(=O)O)C(=O)N2C(C(=O)O)=C(CSc3nnnn3C)CS[C@@H]21 [cefminox] | 96.6 | 98.8 | 102 | 104 | 101 | 106 | 103 | 91.5 | 103 | 98.5 | 108 | 116 | 96.6 | 98.1 | 92.1 | 116 | 99.8 | 105 | 94.5 | 122 | 93.7 | 103 | 99.3 | 104 | 97.8 | 0 | 0 | 0 | 0 | 0 | > 10 | > 10 | > 10 | > 10 | > 10
7 | Cc1cc(/C=C2\SC(=O)N(c3ccccc3)C2=O)c(C)n1-c1cccnc1 [iCRT-14] | 97 | 96.8 | 102 | 95.7 | 96.4 | 107 | 107 | 102 | 96.8 | 89 | 96.7 | 102 | 93.4 | 94.3 | 76.2 | 101 | 88.7 | 100 | 104 | 107 | 105 | 102 | 96.8 | 99.8 | 89.8 | 0 | 0.1 | 1.4 | 0 | 0 | > 10 | > 10 | > 10 | > 10 | > 10
8 | Fc1ccc(C(c2ccc(F)cc2)N2CCN(C/C=C/c3ccccc3)CC2)cc1 [flunarizine] | 96.1 | 101 | 97.7 | 98.4 | 88.8 | 99.8 | 102 | 104 | 103 | 81.6 | 106 | 102 | 106 | 96.3 | 82.8 | 95.8 | 98.9 | 96.5 | 95.8 | 87.4 | 104 | 103 | 107 | 102 | 92.3 | 0.1 | 0.3 | 0.8 | 0 | 0 | > 10 | > 10 | > 10 | > 10 | > 10
